Columns and labels:
[1] = species: Rattus norvegicus; assay: Ability to inhibit high-affinity uptake of [3H]DA into striatal nerve endings (synaptosomes); format: functional; conditions: Brain
[2] = target: Sodium-dependent serotonin transporter (Rattus norvegicus, UniProt P31652); assay: Ability to inhibit binding of [3H]paroxetine to Serotonin transporter in rat caudate putamen; format: tissue-based
[3] = target: Sodium-dependent dopamine transporter (Rattus norvegicus, UniProt P23977); assay: Ability to inhibit binding of [3H]WIN-35428 to dopamine transporter in rat caudate putamen; format: tissue-based
Sequence of Sodium-dependent dopamine transporter (P23977 whole entry): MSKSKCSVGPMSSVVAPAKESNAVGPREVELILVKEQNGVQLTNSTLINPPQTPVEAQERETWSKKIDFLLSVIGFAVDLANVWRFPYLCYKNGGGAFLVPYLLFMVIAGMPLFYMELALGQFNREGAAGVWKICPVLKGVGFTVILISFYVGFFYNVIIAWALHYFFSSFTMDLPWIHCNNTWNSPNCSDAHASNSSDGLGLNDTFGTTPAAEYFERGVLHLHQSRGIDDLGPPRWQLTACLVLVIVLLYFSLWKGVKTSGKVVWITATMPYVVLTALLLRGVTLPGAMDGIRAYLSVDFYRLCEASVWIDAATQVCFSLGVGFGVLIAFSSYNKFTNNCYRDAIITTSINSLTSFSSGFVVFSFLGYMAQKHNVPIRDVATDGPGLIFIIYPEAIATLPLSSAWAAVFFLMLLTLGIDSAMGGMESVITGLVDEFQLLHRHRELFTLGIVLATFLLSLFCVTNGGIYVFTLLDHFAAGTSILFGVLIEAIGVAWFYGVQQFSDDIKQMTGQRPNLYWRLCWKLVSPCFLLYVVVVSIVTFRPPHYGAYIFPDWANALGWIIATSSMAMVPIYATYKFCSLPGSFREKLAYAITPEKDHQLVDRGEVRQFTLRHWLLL

Sequence of Sodium-dependent serotonin transporter (P31652 whole entry): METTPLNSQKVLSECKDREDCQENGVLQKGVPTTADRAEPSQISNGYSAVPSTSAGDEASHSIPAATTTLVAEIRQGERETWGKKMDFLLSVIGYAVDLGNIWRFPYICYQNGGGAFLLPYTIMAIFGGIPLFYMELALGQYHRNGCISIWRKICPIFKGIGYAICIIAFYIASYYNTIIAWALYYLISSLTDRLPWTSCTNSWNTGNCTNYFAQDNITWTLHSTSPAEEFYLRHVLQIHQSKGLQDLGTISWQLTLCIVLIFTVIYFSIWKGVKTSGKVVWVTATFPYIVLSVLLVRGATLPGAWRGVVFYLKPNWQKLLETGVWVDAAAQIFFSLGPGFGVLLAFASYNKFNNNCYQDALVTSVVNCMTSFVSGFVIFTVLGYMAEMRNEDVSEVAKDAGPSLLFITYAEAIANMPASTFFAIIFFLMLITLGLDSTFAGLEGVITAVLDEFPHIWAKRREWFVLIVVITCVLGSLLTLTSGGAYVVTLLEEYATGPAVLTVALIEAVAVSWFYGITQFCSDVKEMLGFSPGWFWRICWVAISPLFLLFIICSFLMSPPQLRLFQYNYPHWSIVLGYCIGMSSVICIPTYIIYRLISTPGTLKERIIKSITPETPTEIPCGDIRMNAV

Compound | IC50 [1] [nM] | IC50 [2] [nM] | IC50 [3] [nM]
CO[C@H]1CC2C[C@H](OC(c3ccccc3)c3ccc(Cl)cc3)CC1N2C (stereo partly drawn) | 519 | > 100000 | 750
Fc1ccc(C(O[C@H]2C[C@H]3CC[C@@H](C2)O3)c2ccc(F)cc2)cc1 |  |  | 2000
CO[C@H]1CC2C[C@H](OC(c3ccc(F)cc3)c3ccc(F)cc3)CC1N2C (stereo partly drawn) | 165 | > 100000 | 95
CO[C@@H]1CC2C[C@@H](OC(c3ccccc3)c3ccc(Cl)cc3)CC1N2C (stereo partly drawn) | 179 | > 100000 | 32
COC(=O)[C@@H]1C2CC[C@@H](C[C@@H]1OC(=O)c1ccccc1)N2C (single isomer, unassigned) [COCAINE] | 208 |  | 
CO[C@@H]1CC2C[C@@H](OC(c3ccc(F)cc3)c3ccc(F)cc3)CC1N2C (stereo partly drawn) | 104 | > 100000 | 25
CO[C@H]1CC2C[C@H](OC(c3ccccc3)c3ccccc3)CC1N2C (mixture of isomers) | 2280 | > 100000 | 650
c1ccc(C(O[C@H]2C[C@H]3CC[C@@H](C2)O3)c2ccccc2)cc1 |  |  | > 10000
